# In publication PMC4721545 (Bioscience Reports, 2015):
# Like-named read-outs stand apart in the source and are kept apart here.
# Legend:
# [1] = tested on: primary neurons; assay: LDH release cell death assay, primary neurons; assay type: cell-based; details: 24 h
# Description: (§1) Embryonic 18-day-mouse cortex (Shanghai SLAC Laboratory Animal Co. Ltd) were dissected under a microscope and then triturated into the suspension in Neurobasal-A-medium (Gibco) supplemented with 2% B27 (Gibco), 100 units/ml penicillin and 100 μg/ml streptomycin (Gibco). The cells were then plated on cover slips coated with poly-D-lysine (0.1 mg/ml; Sigma) at a density of 1×10^6 cells per cm^2 at 37°C in a humidified cell incubator under a 95%/5% (v/v) mixture of air and CO2, with the cell media being replaced every 48 h. After 7 days, neurons were incubated with different conditioned medium.
# (§2) The death of BV-2 microglia and primary neurons was measured by LDH release in the culture medium. Levels of LDH release in supernatants of cultured cells were measured using the cytotoxicity detection kit (Promega) according to the manufacturer's protocol. Maximum LDH release (A570) was determined following the treatment of cells with lysis buffer and considered as control value (100% LDH release). Data were expressed as a percentage of the control value.
# [2] = tested on: primary neurons; assay: Neurite outgrowth of primary neurons (MAP-2 staining, Image J); assay type: cell-based, mouse; details: PBS control 4.1 μm; P<0.01
# Description: as §1
# (§3) Fluorescent photomicrographs of neurons with microtubule-associated protein-2 (MAP-2) staining or photomicrographs of BV-2 cells under inverted microscope were captured with a 20× objective and a digital camera of Olympus microscope. Images were acquired from randomly selected fields for each group. The length of the longest neurite outgrown or dendritic formation in the cell body was measured by an investigator blinded to the experimental groups using a public-domain image-processing program (Image J, http://rsb.info.nih.gov/ij). Average lengths of neuronal neurite or dendritic formation were used for quantification.
# [3] = tested on: BV-2 microglia; assay: LDH release cell death assay and morphology, BV-2 microglia; assay type: cell-based; details: for BV-2 microglia cell death / morphology: 75 μg/ml and 200 μg/ml, 48 h culture; for death of BV-2 microglia (LDH release): 24 h
# Description: (§4) The BV-2 immortalized microglial cell line was purchased from ShenKe Biological Technology Co. and cultured in Dulbecco's modified Eagle's medium (DMEM; Gibco), supplemented with 10% FBS (Gibco), 100 units/ml penicillin and 100 μg/ml streptomycin (Gibco) at 37°C in a humidified cell incubator under a 95%/5% (v/v) mixture of air and CO2. Cells were plated on a 96-well plate at a density of 1.0×10^6 /ml (200 μl/well), on a 24-well plate at 1.0×10^6/ml (500 μl/well) and at 0.2×10^6 /ml (500 μl/well) for different experiments.
# as §2
# [4] = tested on: BV-2 microglia; assay: MTT cell viability assay, BV-2 microglia; assay type: cell-based; details: 24 h
# Description: as §4
# (§5) Cell viability of BV-2 microglia and primary neurons was detected by MTT assay. In brief, 100 μl of MTT solution (0.5 mg ml^−1, Duchefa) was added to cultured cells and incubated for an additional 4 h at 37°C, until the medium turned purple. Absorbance at 570 nm was measured by a microplate reader after addition of 100 μl DMSO. Each experiment was performed in triplicate and repeated three times with separate cell preparations. Results were expressed as a percentage of the control value at 570 nm.
# [5] = tested on: C57BL/6 mice; assay: Test of vasodilation in naive mice; assay type: in vivo; details: healthy mice, 800 μg/mouse i.p., after 30 and 60 min
# [6] = tested on: EAE in C57BL/6 mice; assay: Chronic EAE induced with MOG35-55, clinical score and body weight; assay type: in vivo, mouse; details: 800 μg/200 μl daily i.p., day 3 to 27 p.i.; for mean clinical score: EAE control 1.29±1.08, P<0.001; for maximum clinical score: EAE control 2.78; for body weight loss vs EAE mice: P<0.001
# Description: Female C57BL/6 mice (8–10 weeks old and 18–20 g of body weight) were purchased from Vital River Laboratory Animal Technology Co. Ltd. All experiments were conducted in accordance with the guidelines of the International Council for Laboratory Animal Science. The study was approved by the Ethics Committee of Shanxi Datong University. […].
# Mouse myelin oligodendrocyte glycoprotein peptide 35–55 (MOG35–55, MEVGW […]) was produced in an automatic synthesizer (CL. Bio-Scientific Company). The purity of the peptide was >95% as determined by HPLC. Chronic EAE was induced by subcutaneous immunization on the upper dorsal flanks with 300 μg of MOG35–55 in Freund's complete adjuvant (Sigma) supplemented with 3 mg/ml of M. Tuberculosis H37Ra (BD Difco; […]). Mice were injected intraperitoneally (i.p.) with 500 ng of pertussis toxin (Enzo Life Sciences) on days 0 and 2 post-immunization (p.i.). Animals were weighed and evaluated for clinical score every other day in a blinded fashion by at least two investigators. Clinical score of EAE was graded according to the following criteria: 0: healthy; 1: limp tail; 2: ataxia and/or paresis of hind limbs; 3: paralysis of hind limbs and/or paresis of forelimbs; 4: tetraparalysis; and 5: moribund or death. When the clinical score of EAE reaches 3, we give suitable care including softening of food with water in dish and additional nutrients such as egg, making mice easy to obtain food and nutrition.
# Mice were divided into three groups: Fasudil-treated group (n=8), FSD-C10-treated group (n=8) and double-distilled water (ddH2O) EAE control group (n=9). […] Mice were i.p. injected with 800 μg/200 μl/daily from day 3 to day 27 p.i. Mice that received the same volume of ddH2O i.p. served as control.
# [7] = tested on: BDNF, GDNF, NT-3, Nogo protein in brain; assay: Western blot of neurotrophic factors and Nogo in brain of EAE mice; assay type: in vivo, mouse; details: day 28 p.i., vs control EAE mice; for expression of BDNF protein in brain / expression of GDNF protein in brain / expression of NT-3 protein in brain: P<0.05
# Description: (§6) Mice were divided into three groups: Fasudil-treated group (n=8), FSD-C10-treated group (n=8) and double-distilled water (ddH2O) EAE control group (n=9). […] Mice were i.p. injected with 800 μg/200 μl/daily from day 3 to day 27 p.i. Mice that received the same volume of ddH2O i.p. served as control. Protein from brains was homogenized on ice with an extraction kit and protein concentration was determined by a Bradford protein assay. Protein extracts (30 μg) were separated by SDS/PAGE and transferred on to a PVDF membrane (Immobilon-P; Millipore Corp.). The membranes were then incubated with anti-GDNF (glial cell line-derived neurotrophic factor; 1:1000, Epitomics), anti-BDNF (brain-derived neurotrophic factor; 1:1000, Promega), anti-NT-3(neurotrophin-3; 1:1000, Epitomics), anti-Nogo(1:1000, Epitomics), anti-iNOS (inducible nitric oxide synthase) (1:1000, Cell Signaling Technology) […], anti-arginase-1 ([…]) (1:1000, BD Bioscience) and anti-β-actin (1:10000, Cell Signaling Technology) for overnight at 4°C. Bands were visualized by horseradish peroxidase (HRP-) conjugated secondary antibodies and ECL kit under ECL system (GE Healthcare Life Sciences).
# [8] = tested on: iNOS and Arg-1 expression in brain; assay: Western blot of iNOS and Arg-1 in brain of EAE mice (M1/M2 polarization); assay type: in vivo, mouse; details: day 28 p.i.
# Description: as §6
# [9] = tested on: mice; assay type: in vivo; details: within 2 h
# Description: […]. […] Given that FSD-C10 was well tolerant in vivo, further pre-clinical studies are valuable for the treatment of MS.
# […]. […] TEXT PRINTED IN THE PICTURE: (b) Fasudi: Mortality (%): 0% (800 μg /mouse/day); Mortality (%): 33% (1600 μg /mouse/day); Mortality (%): 67% (2000 μg /mouse/day) | (b) FSD-C10: Mortality (%): 0% (800 μg /mouse/day); Mortality (%): 0% (1600 μg /mouse/day); Mortality (%): 0% (2000 μg /mouse/day)
# [10] = tested on: primary neurons; assay: MTT cell viability assay, primary neurons; assay type: cell-based, mouse; details: 24 h
# Description: as §1, §5
# [11] = tested on: BV-2 microglia; assay: Dendritic formation of BV-2 microglia (Image J); assay type: cell-based; details: for breakage of dendritic branches on BV-2 microglia: 75 and 200 μg/ml; for dendritic length of BV-2 microglia (mean): PBS control 2.94 μm, P<0.001
# Description: as §4, §3
# [12] = target: T1, ROCK I (Homo sapiens, UniProt Q13464); assay: ROCK inhibition by mobility shift assay, ROCK I; assay type: biochemical; details: ATP con. 3.6 μM
# T1 construct: purchased Carna
# T1 sequence (Q13464 whole entry): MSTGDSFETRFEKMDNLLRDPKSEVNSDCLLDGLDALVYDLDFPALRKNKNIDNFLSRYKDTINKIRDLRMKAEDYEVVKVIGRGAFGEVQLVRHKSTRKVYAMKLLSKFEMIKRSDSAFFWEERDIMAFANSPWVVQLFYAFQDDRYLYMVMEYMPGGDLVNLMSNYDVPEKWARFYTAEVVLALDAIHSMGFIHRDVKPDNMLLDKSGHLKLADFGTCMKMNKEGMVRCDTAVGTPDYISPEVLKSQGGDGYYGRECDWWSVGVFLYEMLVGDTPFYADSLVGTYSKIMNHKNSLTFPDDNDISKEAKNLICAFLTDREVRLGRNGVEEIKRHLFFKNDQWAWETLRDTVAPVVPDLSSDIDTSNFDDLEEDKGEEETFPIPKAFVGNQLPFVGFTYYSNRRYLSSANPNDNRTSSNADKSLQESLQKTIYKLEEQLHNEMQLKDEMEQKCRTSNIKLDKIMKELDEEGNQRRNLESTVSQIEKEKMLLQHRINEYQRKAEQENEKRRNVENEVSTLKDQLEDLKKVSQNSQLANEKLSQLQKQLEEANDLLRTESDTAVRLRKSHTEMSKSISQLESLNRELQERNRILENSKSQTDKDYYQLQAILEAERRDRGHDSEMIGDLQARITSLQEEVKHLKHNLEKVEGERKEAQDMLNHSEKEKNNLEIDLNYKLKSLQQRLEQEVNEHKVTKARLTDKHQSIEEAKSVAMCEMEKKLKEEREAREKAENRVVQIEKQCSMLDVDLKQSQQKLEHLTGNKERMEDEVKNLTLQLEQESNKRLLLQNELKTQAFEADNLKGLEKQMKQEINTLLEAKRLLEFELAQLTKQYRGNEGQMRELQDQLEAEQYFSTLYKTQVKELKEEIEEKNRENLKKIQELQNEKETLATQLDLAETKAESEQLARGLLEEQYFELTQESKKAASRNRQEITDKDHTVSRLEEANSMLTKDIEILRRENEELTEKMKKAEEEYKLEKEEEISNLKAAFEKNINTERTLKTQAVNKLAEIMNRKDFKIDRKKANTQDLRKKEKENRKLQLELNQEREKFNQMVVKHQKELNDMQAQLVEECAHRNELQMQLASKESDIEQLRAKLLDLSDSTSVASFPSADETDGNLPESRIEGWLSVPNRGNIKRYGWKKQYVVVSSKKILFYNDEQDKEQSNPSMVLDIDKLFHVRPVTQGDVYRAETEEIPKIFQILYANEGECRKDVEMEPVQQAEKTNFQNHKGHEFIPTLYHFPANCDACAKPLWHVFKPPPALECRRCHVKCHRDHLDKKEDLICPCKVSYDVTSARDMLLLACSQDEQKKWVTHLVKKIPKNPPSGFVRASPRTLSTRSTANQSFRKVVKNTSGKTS
# Description: (§7) Staurosporine (Sigma) was used as positive control and saline was used as negative control.
# (§8) DMSO (100 μl) was added to two empty wells for no compound control and no enzyme control in the same 96-well plate. Mobility shift assay was performed according to the manufacturer's protocol. […] The mixtures (5 μl) were incubated with 2.5× enzyme solution (10 μl) in 384-well plate at room temperature for 10 min and control was performed by adding 5 μl of kinase buffer.
# (§9) Percentinhibition=max−conversion/max−min×100
# (§10) where max stands for DMSO control; min stands for low control.
# [13] = tested on: EAE in C57BL/6 mice; design: method as in PMID 24749492; details: previous studies; cited from earlier work
# [14] = target: T2, ROCK II (Homo sapiens, UniProt O75116); assay: ROCK inhibition by mobility shift assay, ROCK II; assay type: biochemical; details: ATP con. 5.3 μM
# T2 construct: purchased Carna
# T2 sequence (O75116 whole entry): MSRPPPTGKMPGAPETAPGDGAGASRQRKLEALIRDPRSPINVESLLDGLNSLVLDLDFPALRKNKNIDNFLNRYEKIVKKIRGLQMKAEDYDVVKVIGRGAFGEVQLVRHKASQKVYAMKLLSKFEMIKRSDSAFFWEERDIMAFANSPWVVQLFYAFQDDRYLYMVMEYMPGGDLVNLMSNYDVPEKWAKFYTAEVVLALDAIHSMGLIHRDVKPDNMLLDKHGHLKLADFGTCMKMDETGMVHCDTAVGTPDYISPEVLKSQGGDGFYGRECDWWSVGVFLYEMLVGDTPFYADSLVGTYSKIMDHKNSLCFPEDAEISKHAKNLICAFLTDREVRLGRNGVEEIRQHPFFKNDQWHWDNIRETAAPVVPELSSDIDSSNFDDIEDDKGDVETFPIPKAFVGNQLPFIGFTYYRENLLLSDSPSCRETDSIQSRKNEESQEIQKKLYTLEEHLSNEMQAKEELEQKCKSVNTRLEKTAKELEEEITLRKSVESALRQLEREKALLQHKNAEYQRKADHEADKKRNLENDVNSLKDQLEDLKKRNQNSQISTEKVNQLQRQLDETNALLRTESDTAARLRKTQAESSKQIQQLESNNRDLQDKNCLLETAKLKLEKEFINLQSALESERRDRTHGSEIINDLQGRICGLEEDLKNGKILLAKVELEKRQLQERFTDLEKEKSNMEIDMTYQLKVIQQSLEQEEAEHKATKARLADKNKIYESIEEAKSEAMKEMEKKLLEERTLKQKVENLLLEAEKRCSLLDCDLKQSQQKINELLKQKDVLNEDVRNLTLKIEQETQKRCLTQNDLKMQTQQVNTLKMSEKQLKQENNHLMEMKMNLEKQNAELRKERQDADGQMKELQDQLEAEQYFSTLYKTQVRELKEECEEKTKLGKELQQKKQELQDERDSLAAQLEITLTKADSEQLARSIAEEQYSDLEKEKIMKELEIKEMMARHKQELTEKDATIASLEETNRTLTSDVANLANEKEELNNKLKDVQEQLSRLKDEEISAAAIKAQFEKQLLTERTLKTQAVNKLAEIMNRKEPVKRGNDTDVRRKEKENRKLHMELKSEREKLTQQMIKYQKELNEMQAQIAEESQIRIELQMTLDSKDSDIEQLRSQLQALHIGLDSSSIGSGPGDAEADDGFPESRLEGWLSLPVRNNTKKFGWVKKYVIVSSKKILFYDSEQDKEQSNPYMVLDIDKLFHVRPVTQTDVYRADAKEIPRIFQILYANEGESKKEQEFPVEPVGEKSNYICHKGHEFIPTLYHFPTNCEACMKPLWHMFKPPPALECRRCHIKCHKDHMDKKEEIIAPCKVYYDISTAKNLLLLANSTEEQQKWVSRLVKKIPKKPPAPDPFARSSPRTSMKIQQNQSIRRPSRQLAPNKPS
# Description: as §7, §8, §9, §10
SMILES,death of primary neurons (LDH release) ([1]; 0.6–15 μg/ml),neurite length of primary neurons (mean) [2],BV-2 microglia cell death / morphology [3],death of BV-2 microglia (LDH release) ([3]; 0.6–15 μg/ml),"viability of BV-2 microglia (MTT) ([4]; 75 μg/ml, vs control)",viability of BV-2 microglia (MTT) ([4]; 0.6–15 μg/ml),vasodilation on the foot of mice [5],mean clinical score [6],maximum clinical score [6],body weight loss vs EAE mice [6],expression of Nogo protein in brain [7],expression of BDNF protein in brain [7],expression of GDNF protein in brain [7],expression of NT-3 protein in brain [7],Arg-1 expression in brain [8],iNOS expression in brain [8],"viability of primary neurons (MTT) ([10]; 75 μg/ml, vs control)",viability of primary neurons (MTT) ([10]; 0.6–15 μg/ml),breakage of dendritic branches on BV-2 microglia [11],dendritic length of BV-2 microglia (mean) [11],further results
"Cl.O=S(=O)(c1cccc2cnccc12)N1CCCNCC1 [Fasudil, hexahydro-1-(5-isoquinolinyl-sulfonyl)-1H-1,4-diazepine monohydrochloride, reference compound]",did not influence,6.6 μm,obvious cell death,did not influence,significant decrease,did not influence,obvious vasodilation,0.04±0.07,0.19,less body weight loss,"slightly, although not significantly, declined",significantly enhanced,significantly enhanced,significantly enhanced,elevated,inhibited,significant decrease,did not influence,caused significant breakage,12.5 μm,Mortality (%) ([9]; 800 μg/mouse i.p.): 0%; Mortality (%) ([9]; 1600 μg/mouse i.p.): 33%; Mortality (%) ([9]; 2000 μg/mouse i.p.): 67%
O=S(=O)(c1cccc2cnccc12)N1CCC[C@H]1CCl [FSD-C10],did not influence,10.5 μm,good cell morphology,did not influence,did not lead to significant decrease,did not influence,relatively weak vasodilator effect,0.28±0.23,0.50,less body weight loss,"slightly, although not significantly, declined",significantly enhanced,significantly enhanced,significantly enhanced,elevated,inhibited,did not lead to significant decrease,did not influence,did not cause significant breakage,12.5 μm,"death of primary neurons (LDH release) ([1]; 75 μg/ml, vs control): did not lead to significant decrease; IC50 [12]: 1.14 µM; death of BV-2 microglia (LDH release) ([3]; 75 μg/ml, vs control): did not lead to significant decrease; BV-2 cell death at higher doses with the extension of time ([3]; ≥200 μg/ml, result not shown): caused cell death; clinical severity of EAE [13]: ameliorated; IC50 [14]: 0.711 µM"
